Converted amounts (≈) assume the structure as drawn. The source made the active and inactive calls. No cut-off for these calls is given here.
Columns and labels:
Madurella mycetomatis [1] = test: Antifungal activity against Madurella mycetomatis SO1 by XTT assay; assay type: functional
Madurella mycetomatis [2] = test: Antifungal activity against Madurella mycetomatis AL1 by XTT assay; assay type: functional
[3] = Selectivity index, ratio of IC50 for mouse NIH3T3 cells to IC50 for Madurella mycetomatis MM55; assay type: toxicity; settings: read-out: Ratio IC50
Madurella mycetomatis [4] = test: Antifungal activity against Madurella mycetomatis I3 by XTT assay; assay type: functional
Madurella mycetomatis [5] = test: Antifungal activity against Madurella mycetomatis CBS247.48 by XTT assay; assay type: functional
[6] = Cytotoxicity against mouse NIH3T3 cells incubated for 5 days by MTT assay; assay type: toxicity, cell-based
Madurella mycetomatis [7] = test: Antifungal activity against Madurella mycetomatis P1 by XTT assay; assay type: functional
Madurella mycetomatis [8] = test: Antifungal activity against Madurella mycetomatis I1 by XTT assay; assay type: functional
Madurella mycetomatis [9] = test: Antifungal activity against Madurella mycetomatis MM50 by XTT assay; assay type: functional
Madurella mycetomatis [10] = test: Antifungal activity against Madurella mycetomatis I11 by XTT assay; assay type: functional
Madurella mycetomatis [11] = test: Antifungal activity against Madurella mycetomatis Peru72012 by XTT assay; assay type: functional
Madurella mycetomatis [12] = test: Antifungal activity against Madurella mycetomatis MM55 by XTT assay; assay type: functional, organism-based
Madurella mycetomatis [13] = test: Antifungal activity against Madurella mycetomatis MM55 at 25 uM by XTT assay; assay type: functional, organism-based
Madurella mycetomatis [14] = test: Antifungal activity against Madurella mycetomatis MM55 at 100 uM by XTT assay; assay type: functional, organism-based

Row | Compound | MIC (Madurella mycetomatis [1]) [µM] | MIC (Madurella mycetomatis [2]) [µM] | MIC (Madurella mycetomatis [4]) [µM] | MIC (Madurella mycetomatis [5]) [µM] | MIC (Madurella mycetomatis [7]) [µM] | MIC (Madurella mycetomatis [8]) [µM] | MIC (Madurella mycetomatis [9]) [µM] | MIC (Madurella mycetomatis [10]) [µM] | MIC (Madurella mycetomatis [11]) [µM] | MIC (Madurella mycetomatis [12]; Madurella mycetomatis, MM55) [µM] | selectivity ratio [3] | IC50 at 5 days [6] [µM] | IC50 (Madurella mycetomatis [12]; Madurella mycetomatis, MM55) [µM] | IC50 (Madurella mycetomatis [12]) [µM] | Activity (Madurella mycetomatis [13]) | Activity (Madurella mycetomatis [14])
1 | OCCN1CCN(c2cc(-c3cccc4[nH]ccc34)c3nc(-c4ccc(F)cc4)cn3n2)CC1 | – | – | – | – | – | – | – | – | – | – | – | – | > 16 | – | – | –
2 | CN1CCN(c2cc(-c3ccnn3C)c3nc(-c4ccc(F)cc4)cn3n2)CC1 | – | – | – | – | – | – | – | – | – | – | – | – | – | – | inactive | Active
3 | CN1CCN(c2cc(-c3ccsc3)c3nc(-c4ccc(F)cc4)cn3n2)CC1 | – | – | – | – | – | – | – | – | – | – | – | – | 5 | – | – | –
4 | CN1CCN(c2cc(-c3ccc4cc[nH]c4c3)c3nc(-c4ccc(F)cc4)cn3n2)CC1 | – | – | – | – | – | – | – | – | – | – | – | – | 7.1 | – | – | –
5 | CN1CCN(c2cc(-c3cccc4[nH]ccc34)c3nc(-c4ccccc4F)cn3n2)CC1 | – | – | – | – | – | – | – | – | – | – | – | – | 9.2 | – | – | –
6 | CN1CCN(c2cc(-c3cccc4[nH]ccc34)c3nc(-c4ccc(F)cc4)cn3n2)CC1 [listing 2 of 2 here] | – | – | – | – | – | – | – | – | – | – | – | – | – | 10.6 | – | –
7 | CN1CCN(c2cc(-c3ccccc3)c3nc(-c4ccc(F)cc4)cn3n2)CC1 | – | – | – | – | – | – | – | – | – | – | – | – | – | – | inactive | inactive
8 | CN1CCN(c2cc(Br)c3nc(-c4ccc(F)cc4)cn3n2)CC1 | – | – | – | – | – | – | – | – | – | – | – | – | – | – | inactive | inactive
9 | CN1CCN(c2cc(-c3ccncc3)c3nc(-c4ccc(F)cc4)cn3n2)CC1 | – | – | – | – | – | – | – | – | – | – | – | – | – | – | inactive | Active
10 | COc1ccccc1-c1cn2nc(N3CCN(C)CC3)cc(-c3cccc4[nH]ccc34)c2n1 | – | – | – | – | – | – | – | – | – | – | – | – | > 16 | – | – | –

Continued, in another order:

Row | MIC (Madurella mycetomatis [1]) [µM] | MIC (Madurella mycetomatis [2]) [µM] | MIC (Madurella mycetomatis [4]) [µM] | MIC (Madurella mycetomatis [5]) [µM] | MIC (Madurella mycetomatis [7]) [µM] | MIC (Madurella mycetomatis [8]) [µM] | MIC (Madurella mycetomatis [9]) [µM] | MIC (Madurella mycetomatis [10]) [µM] | MIC (Madurella mycetomatis [11]) [µM] | MIC (Madurella mycetomatis [12]; Madurella mycetomatis, MM55) [µM] | Compound | selectivity ratio [3] | IC50 at 5 days [6] [µM] | IC50 (Madurella mycetomatis [12]; Madurella mycetomatis, MM55) [µM] | IC50 (Madurella mycetomatis [12]) [µM] | Activity (Madurella mycetomatis [13]) | Activity (Madurella mycetomatis [14])
11 | 4 (≈ 1.95 µg/mL) | 4 (≈ 1.95 µg/mL) | 8 (≈ 3.9 µg/mL) | 4 (≈ 1.95 µg/mL) | 4 (≈ 1.95 µg/mL) | 4 (≈ 1.95 µg/mL) | 4 (≈ 1.95 µg/mL) | 8 (≈ 3.9 µg/mL) | 4 (≈ 1.95 µg/mL) | 8 (≈ 3.9 µg/mL) | CN1CCN(c2cc(-c3cnc(N4CCN(C)CC4)nc3)c3nc(-c4ccc(F)cc4)cn3n2)CC1 | 6.8 | 12.3 | 2.9 | – | – | –
12 | 0.25 (≈ 0.176 µg/mL) | 0.06 (≈ 0.0423 µg/mL) | 1 (≈ 0.706 µg/mL) | 2 (≈ 1.41 µg/mL) | 0.25 (≈ 0.176 µg/mL) | 8 (≈ 5.65 µg/mL) | 1 (≈ 0.706 µg/mL) | 0.5 (≈ 0.353 µg/mL) | 0.5 (≈ 0.353 µg/mL) | 0.5 (≈ 0.353 µg/mL) | CCC(C)n1ncn(-c2ccc(N3CCN(c4ccc(OCC5COC(Cn6cncn6)(c6ccc(Cl)cc6Cl)O5)cc4)CC3)cc2)c1=O (centres undefined) [ITRACONAZOLE] | 1.4 | 13.7 | 1.1 | – | – | –
13 | 16 (≈ 6.82 µg/mL) | 8 (≈ 3.41 µg/mL) | 8 (≈ 3.41 µg/mL) | 8 (≈ 3.41 µg/mL) | 8 (≈ 3.41 µg/mL) | 8 (≈ 3.41 µg/mL) | 8 (≈ 3.41 µg/mL) | 8 (≈ 3.41 µg/mL) | 8 (≈ 3.41 µg/mL) | 8 (≈ 3.41 µg/mL) | CN1CCN(c2cc(-c3cccc4[nH]ccc34)c3nc(-c4ccc(F)cc4)cn3n2)CC1 [listing 1 of 2 here] | 7.5 | 12.9 | – | 1.7 | – | –
14 | 4 (≈ 1.95 µg/mL) | 4 (≈ 1.95 µg/mL) | 16 (≈ 7.8 µg/mL) | 4 (≈ 1.95 µg/mL) | 4 (≈ 1.95 µg/mL) | 4 (≈ 1.95 µg/mL) | 4 (≈ 1.95 µg/mL) | 4 (≈ 1.95 µg/mL) | 4 (≈ 1.95 µg/mL) | 16 (≈ 7.8 µg/mL) | CN1CCN(c2cc(-c3cnc(N4CCN(C)CC4)nc3)c3nc(-c4ccccc4F)cn3n2)CC1 | 2 | 9.6 | 4 | – | – | –
15 | 8 (≈ 3.41 µg/mL) | 8 (≈ 3.41 µg/mL) | 8 (≈ 3.41 µg/mL) | 4 (≈ 1.71 µg/mL) | 8 (≈ 3.41 µg/mL) | 4 (≈ 1.71 µg/mL) | 4 (≈ 1.71 µg/mL) | 4 (≈ 1.71 µg/mL) | 4 (≈ 1.71 µg/mL) | 16 (≈ 6.82 µg/mL) | CN1CCN(c2cc(-c3ccc4[nH]ccc4c3)c3nc(-c4ccc(F)cc4)cn3n2)CC1 | 2.6 | 9 | 3.4 | – | – | –
16 | 8 (≈ 3.15 µg/mL) | 8 (≈ 3.15 µg/mL) | 8 (≈ 3.15 µg/mL) | 8 (≈ 3.15 µg/mL) | 8 (≈ 3.15 µg/mL) | 8 (≈ 3.15 µg/mL) | 8 (≈ 3.15 µg/mL) | 8 (≈ 3.15 µg/mL) | 8 (≈ 3.15 µg/mL) | 8 (≈ 3.15 µg/mL) | CN1CCN(c2cc(-c3ccsc3)c3nc(-c4cccc(F)c4)cn3n2)CC1 | 2.5 | 11.9 | 2.1 | – | – | –
17 | 8 (≈ 3.39 µg/mL) | 8 (≈ 3.39 µg/mL) | 8 (≈ 3.39 µg/mL) | 4 (≈ 1.69 µg/mL) | 4 (≈ 1.69 µg/mL) | 8 (≈ 3.39 µg/mL) | 8 (≈ 3.39 µg/mL) | 4 (≈ 1.69 µg/mL) | 8 (≈ 3.39 µg/mL) | 4 (≈ 1.69 µg/mL) | OCCN1CCN(c2cc(-c3ccsc3)c3nc(-c4cccc(F)c4)cn3n2)CC1 | 8.2 | 10.7 | 0.9 | – | – | –
18 | 16 (≈ 7.51 µg/mL) | 8 (≈ 3.76 µg/mL) | 8 (≈ 3.76 µg/mL) | 8 (≈ 3.76 µg/mL) | 8 (≈ 3.76 µg/mL) | 8 (≈ 3.76 µg/mL) | 8 (≈ 3.76 µg/mL) | 8 (≈ 3.76 µg/mL) | 8 (≈ 3.76 µg/mL) | 2 (≈ 0.939 µg/mL) | CN1CCN(c2cc(-c3cnc(N4CCN(C)CC4)nc3)c3nc(-c4ccccc4)cn3n2)CC1 | 16 | 14.3 | 2 | – | – | –
19 | 8 (≈ 3.39 µg/mL) | 8 (≈ 3.39 µg/mL) | 8 (≈ 3.39 µg/mL) | 8 (≈ 3.39 µg/mL) | 8 (≈ 3.39 µg/mL) | 8 (≈ 3.39 µg/mL) | 4 (≈ 1.69 µg/mL) | 4 (≈ 1.69 µg/mL) | 8 (≈ 3.39 µg/mL) | 8 (≈ 3.39 µg/mL) | OCCN1CCN(c2cc(-c3ccsc3)c3nc(-c4ccccc4F)cn3n2)CC1 | 4 | 10.5 | 1.3 | – | – | –
20 | > 16 | > 16 | > 16 | 16 (≈ 6.26 µg/mL) | 16 (≈ 6.26 µg/mL) | 16 (≈ 6.26 µg/mL) | > 16 | > 16 | > 16 | > 16 | CN1CCN(c2cc(-c3cnn(C)c3)c3nc(-c4ccc(F)cc4)cn3n2)CC1 | 3.1 | 9 | – | 3.8 | – | –

— ChEMBL document CHEMBL5614400, “Emerging therapeutics: The imidazo[1,2-b]pyridazine scaffold as a novel drug candidate for eumycetoma, a neglected tropical disease” (Eur J Med Chem, 2024)
